Measured values as given in US8022095B2, “Methods of treating headaches using 5-HT agonists in combination with long-acting NSAIDs” (Pozen, Inc., priority 1996, dated 2011).
Read-outs that look alike come from different tables or passages of the source.

Assays:
migraine attacks = experiment: Open-label, randomized out-patient study, 16 migraine patients with high relapse rate, two successive migraine attacks; assay type: in vivo, human
Protocol: Headache pain was assessed by the patients on a 4-point scale (no pain, mild pain, moderate pain, or severe pain). Each patient was treated for two migraine attacks of moderate or severe intensity at baseline and pain scores were recorded every 30 minutes for the first two hours following dosing and at 3, 4, 6, 12 and 24 hours post-dose. “Relapse” was defined to occur in those patients who responded with an adequate reduction in headache pain (moderate or severe at baseline, reduced to no pain or mild pain) at 2 hours after administration and, in whom, over the next 22 hours either: (a) headache pain returned to moderate or severe intensity; or (b) “rescue medication” was required to treat the recurrent headache pain.

[1] = cited from earlier work; for lead time to peak plasma levels: list follows the words 'intramuscular routes will generally have shorter lead times to peak plasma levels'; for half-life: pharmacokinetic / plasma half-life; for time of peak plasma concentration after oral administration: oral dosing
COX-2 = molecular target: T1, COX-2 (Homo sapiens, UniProt P35354); details: reported (Feldman 2000; Sengupta 1999); cited from earlier work
T1 sequence (P35354 18-604): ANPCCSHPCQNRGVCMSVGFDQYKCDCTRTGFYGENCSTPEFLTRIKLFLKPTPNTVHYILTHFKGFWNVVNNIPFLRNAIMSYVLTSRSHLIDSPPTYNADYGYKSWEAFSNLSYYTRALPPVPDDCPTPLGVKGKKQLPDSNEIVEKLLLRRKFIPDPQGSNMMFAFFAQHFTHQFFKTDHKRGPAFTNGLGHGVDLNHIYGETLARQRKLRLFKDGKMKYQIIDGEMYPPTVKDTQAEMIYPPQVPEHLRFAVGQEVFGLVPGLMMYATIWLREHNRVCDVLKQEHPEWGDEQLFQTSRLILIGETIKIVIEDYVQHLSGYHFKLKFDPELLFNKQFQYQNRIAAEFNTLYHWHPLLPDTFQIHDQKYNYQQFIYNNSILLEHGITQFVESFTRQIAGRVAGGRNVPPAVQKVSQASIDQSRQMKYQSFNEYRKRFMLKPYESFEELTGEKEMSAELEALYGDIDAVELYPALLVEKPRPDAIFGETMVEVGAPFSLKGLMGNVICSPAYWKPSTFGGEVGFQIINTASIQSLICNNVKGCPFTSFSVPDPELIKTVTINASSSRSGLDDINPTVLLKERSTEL

migraine = experiment: Comparison of MT 400, triptan alone, NSAID alone and placebo in migraine patients; assay type: in vivo, human; details: for % with nausea / % with phonophobia / % with photophobia / Number with nausea / Number with phonophobia / Number with photophobia: at 2 hours; for Number with nausea / Number with phonophobia / Number with photophobia / Sustained Response (Sustained Pain Response), number of subjects / Sustained Pain Free responders, number of subjects: N = 250 / 229 / 247; for patients with improvement from moderate or severe pain at baseline to mild or no pain: at two hours; for Sustained Response (Sustained Pain Response), number of subjects: initial pain response without return of pain for 24 hours; for Sustained Pain Free responders, number of subjects: pain score 0 at 2 hours and from 2 to 24 hours without rescue; for therapeutic gain, Sustained Pain Free / therapeutic gain over placebo, sustained response / therapeutic gain over placebo, pain response: response rate minus placebo response; for therapeutic gain over placebo, sustained response: 24 hours; for therapeutic gain over placebo, pain response: pain response at two hours; for Sustained Response (Sustained Pain Response), percentage of subjects: initial pain response without return of pain for 24 hours after dosing
Protocol: In these experiments, a comparison was made between: patients administered triptan alone; patients administered NSAID alone; patients administered a combination of triptan and NSAID (“MT400”); and, in some cases, patients administered a placebo.
Sustained response was evaluated based upon the number of patients that experience an initial pain response without a return of pain for the 24 hours after dosing.
The most desirable outcome for the treatment of migraine is that the pain be eliminated quickly and not return. This outcome measure is termed Sustained Pain Free. Responders are defined as patients having a pain score of 0 at 2 hours and nothing more than 0 from 2 to 24 hours post dose without the need for rescue.
As migraine is a pathological complex characterized by unilateral headache, often accompanied by associated symptoms of nausea, photophobia and phonophobia, efficacy against these other parameters is important in evaluating the efficacy of a drug candidate.

migraine attack = test system: migraine attack
Protocol: Headache relief at two hours was determined in a manner identical to that described above, but the relapse and sustained response rates were calculated based solely on a return of moderate or severe headache pain (i.e., no “rescue medication” protocol was used as a separate indicator of relapse).

CNS(=O)(=O)Cc1ccc2[nH]cc(CCN(C)C)c2c1 [sumatriptan]
24 hour sustained response (migraine attacks; % of 16 patients, relapse criteria including rescue medication): 44% | number of patients with 24 hour sustained response (migraine attacks; of 16 patients, relapse criteria including rescue medication): seven | relapse rate (migraine attacks; re-analysed, based solely on return of moderate or severe headache pain): 40% | relapse rate of responding patients (migraine attacks; relapse = return of moderate or severe pain or rescue medication within 22 hours after the 2 hour response): 46% | sustained response rate (migraine attacks; responds initially and no relapse in twenty-four hours, criteria of the second study): 56% | peak serum concentration ([1]; oral doses of about 1-300 mg): 1 to 300 ng/mL | peak serum concentration ([1]; subcutaneous injections of about 1 to 8 mg): 1 to 150 ng/mL

COc1ccc2cc(CCC(C)=O)ccc2c1 [nabumetone]
lead time to peak plasma levels [1]: 2.5 to 4 h | half-life [1]: 22 to 30 h

CCc1cccc2c3c([nH]c12)C(CC)(CC(=O)O)OCC3 (stereo not shown) [etodolac]
half-life [1]: about 7 hours | specificity for COX-2 (COX-2): highly specific for COX-2

CC(C(=O)O)c1ccc(-c2ccccc2)c(F)c1 (stereo not shown) [flurbiprofen]
half-life [1]: about 6 hours

COc1ccc2c(c1)c(CC(=O)O)c(C)n2C(=O)c1ccc(Cl)cc1 [indomethacin]
lead time to peak plasma levels [1]: 1 to 4 h

CNS(=O)(=O)Cc1ccc2[nH]cc(CCN(C)C)c2c1 [Imitrex, sumatriptan succinate]
% with nausea (migraine): (31.9%) | % with phonophobia (migraine): (44.5%) | % with photophobia (migraine): (50.2%) | Number with nausea (migraine): 73 | Number with phonophobia (migraine): 102 | Number with photophobia (migraine): 115 | patients with improvement from moderate or severe pain at baseline to mild or no pain (migraine): 49% | Sustained Response (Sustained Pain Response), number of subjects (migraine): 66 | Sustained Pain Free responders, number of subjects (migraine): 25 | therapeutic gain, Sustained Pain Free (migraine): 5.9% | therapeutic gain over placebo, sustained response (migraine): 12% | therapeutic gain over placebo, pain response (migraine): 22%

CN1C(C(=O)Nc2ccccn2)=C(O)c2sc(Cl)cc2S1(=O)=O [lornoxicam]
time of peak plasma concentration after oral administration [1]: approximately two | half-life [1]: about 4 hours | half-life ([1]; listed as Lornoxicam): approximately 4 hours

O=C(c1ccccc1)c1ccc2n1CCC2C(=O)O (stereo not shown) [ketorolac]
half-life [1]: 8 to 9 h

Cc1cccc(Nc2ccccc2C(=O)O)c1C [mefenamic acid]
half-life [1]: up to 4 hours | specificity for COX-2 (COX-2): highly specific for COX-2

Cc1onc(-c2ccccc2)c1-c1ccc(S(N)(=O)=O)cc1 [valdecoxib]
time of peak plasma concentration after oral administration [1]: 2 to 3 h | half-life [1]: 8 to 11 h

Cc1ccc(Cl)c(Nc2ccccc2C(=O)O)c1Cl [meclofenamate, Meclofenamate sodium]
lead time to peak plasma levels [1]: 0.5 to 1 h

COc1ccc2cc([C@H](C)C(=O)O)ccc2c1 [naproxen sodium]
relapse rate (migraine attack; 500 mg naproxen sodium alone, based solely on return of moderate or severe headache pain): 26%

COc1ccc2cc([C@H](C)C(=O)O)ccc2c1 [naproxen]
% with nausea (migraine): (31.2%) | % with phonophobia (migraine): (47.8%) | % with photophobia (migraine): (57.5%) | Number with nausea (migraine): 77 | Number with phonophobia (migraine): 118 | Number with photophobia (migraine): 142 | patients with improvement from moderate or severe pain at baseline to mild or no pain (migraine): 46% | Sustained Response (Sustained Pain Response), percentage of subjects (migraine): 24.7% | Sustained Response (Sustained Pain Response), percentage of subjects (migraine; listed as Naproxen): (24.7%) | Sustained Response (Sustained Pain Response), number of subjects (migraine): 61 | Sustained Pain Free responders, number of subjects (migraine): 29 | Sustained Pain Free responders, percentage of subjects (migraine; pain score 0 at 2 hours and nothing more than 0 from 2 to 24 hours post dose without rescue): (11.7%) | therapeutic gain, Sustained Pain Free (migraine): 6.7% | therapeutic gain over placebo, sustained response (migraine): 8% | therapeutic gain over placebo, pain response (migraine): 19% | sustained response rate (migraine attack; responds initially and no relapse in twenty-four hours): 46%

CS(=O)(=O)c1ccc(C2=C(c3ccccc3)C(=O)OC2)cc1 [rofecoxib]
time of peak plasma concentration after oral administration [1]: 2 to 3 h | half-life [1]: about 17 hours

Cc1ccc(-c2cc(C(F)(F)F)nn2-c2ccc(S(N)(=O)=O)cc2)cc1 [Celecoxib, celecoxib]
time of peak plasma concentration after oral administration [1]: approximately 3 hours | half-life [1]: approximately 11 hours

O=C(O)CCc1nc(-c2ccccc2)c(-c2ccccc2)o1 [oxaprozin]
half-life [1]: 42 to 50 h | half-life ([1]; listed as Oxaprozin): 42 to 50 h

CN1C(C(=O)Nc2ccccn2)=C(O)c2ccccc2S1(=O)=O [piroxicam]
time of dosing until steady state plasma concentrations are reached ([1]; in vivo): 7 to 12 days
